Test results from PubChem BioAssay (NCI).
“And” between values parts separate entries of the source, which are not always exact repeats. Equal values may be shown once.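 96-well plates; 48 h exposure; 5 concentrations. Endpoints by linear interpolation between flanking doses. Not reached: highest tested concentration assigned. GI50 is the concentration that inhibits growth by half. TGI is the concentration that stops growth completely.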

Tests used:
Experiment in all cases: NCI anticancer screen, dose series, 48 h
SF-268 CNS = system: SF-268 CNS
SR leukemia = system: SR leukemia
SF-295 CNS = system: SF-295 CNS
SK-MEL-28 melanoma = system: SK-MEL-28 melanoma
CCRF-CEM leukemia = system: CCRF-CEM leukemia
IGROV1 ovarian = system: IGROV1 ovarian
COLO 205 colon = system: COLO 205 colon
M14 melanoma = system: M14 melanoma
SN12C renal = system: SN12C renal
T-47D breast = system: T-47D breast

Compound | TGI (SF-268 CNS) | TGI (SR leukemia) [µM] | TGI (SF-295 CNS) [µM] | TGI (SK-MEL-28 melanoma) [µM] | TGI (CCRF-CEM leukemia) | TGI (IGROV1 ovarian) | TGI (COLO 205 colon) [µM] | TGI (M14 melanoma) [µM] | TGI (SN12C renal) [µM] | GI50 (SF-268 CNS) [µM] | GI50 (SF-295 CNS) [µM] | GI50 (T-47D breast) [µM] | TGI (T-47D breast) [µM] | GI50 (CCRF-CEM leukemia) [µM] | GI50 (IGROV1 ovarian) [µM] | GI50 (COLO 205 colon) [µM] | GI50 (M14 melanoma) [µM] | GI50 (SN12C renal) [µM] | GI50 (SK-MEL-28 melanoma) [µM] | GI50 (SR leukemia) [µM]
O=C1c2ccoc2C(=O)c2oc(=O)ccc21 | 27.1 µM | 3.83 | 31.5 | 11.5 | 15.7 µM | 40 µM | > 55.4 | 21.8 | 24.2 | – | – | – | – | – | – | – | – | – | – | –
COc1ccc2nc(-c3ccc(O)cc3)ccc2c1 | – | > 100 | > 100 | > 100 | > 100 µM | > 100 µM | > 100 | > 100 | > 100 | – | – | – | – | – | – | – | – | – | – | –
CC(C)(C)c1cc(C(OCCl)(C(F)(F)F)C(F)(F)F)c2c(c1)C(C(F)(F)F)(C(F)(F)F)OC21c2ccccc2C(=O)c2ccccc21 | – | > 100 | > 100 | > 100 | – | – | > 100 | > 100 | > 100 | – | – | – | – | – | – | – | – | – | – | –
COc1ncc2cc1NS(=O)(=O)c1cccc(c1)C(=O)NCC1=CC=C(S1)c1ncnc3c1SC2=C3C | 11.8 µM | – | 2.61 | – | 1.16 µM | 1.6 µM | 0.555 | 1.89 | 18.3 | 0.37 | 0.0972 | 0.0946 | 4.04 | 0.153 | 0.0715 | 0.204 | 0.0992 | 0.395 | – | –
C1=C(c2ccccc2)C(OC2Oc3ccccc3C=C2c2ccccc2)Oc2ccccc21 (stereo not given) | > 100 µM | > 100 | > 100 | > 100 | > 100 µM | > 100 µM | > 100 | > 100 | > 100 | – | – | – | – | – | – | – | – | – | – | –
O=C(O)C1=C(C(=O)O)Oc2ccccc2O1 | > 100 µM | > 100 | > 100 | > 100 | > 100 µM | > 100 µM | > 100 | > 100 | > 100 | – | – | – | – | – | – | – | – | – | – | –
COc1cccc2c1[C@H]1OC(=O)NC1CCCCC2 (stereo not given in full) | > 100 µM | – | > 100 | > 100 | > 100 µM | > 100 µM | > 100 | > 100 | > 100 | – | – | – | – | – | – | – | – | – | – | –
Nc1ncnc2c1ncn2CCOC(c1ccccc1)P(=O)(O)O (stereo not given) | > 100 µM | > 100 | > 100 | > 100 | > 100 µM | > 100 µM | > 100 | – | > 100 | – | – | – | – | – | – | – | – | – | – | –
O=C(CCC(=O)C1Cc2ccccc2C1=O)Nc1cccc(C(F)(F)F)c1 (stereo not given) | > 100 µM | – | > 100 | – | > 100 µM | > 100 µM | > 100 | > 100 | > 100 | – | – | – | – | – | – | – | – | – | – | –
Cc1ccc(NC2=CC(=O)C(=O)c3ccccc32)c(C)c1 | 16.2 µM | – | 3.37 | 13.5 | > 100 µM | 6.68 µM | 11.6 | 3.26 | 9.17 | 3.75 | 1.68 | 3.96 | 25.2 | 6.23 | 1.88 | 3.06 | 1.78 | 2.81 | 3.54 | –
O=c1[nH]c(=O)n(C2CC(O)C(O)C(CO)O2)cc1F (stereo not given) | > 100 µM | – | > 100 | > 100 | > 100 µM | > 100 µM | > 100 | > 100 | > 100 | – | – | – | – | – | – | – | – | – | – | –
CC(=O)c1c(O)c2c([nH]c1=O)CCCC2 | > 100 µM | – | 39.7 | > 100 | > 100 µM | > 100 µM | > 100 | > 100 | 45.1 | – | – | – | – | – | – | – | – | – | – | –
O=S(=O)(Cc1ccccc1)SCc1ccccc1 | > 100 µM | > 66.4 | 65.7 | 97.2 | > 27.5 µM | > 84.7 µM | 34.3 | 27.6 | 58 | – | – | – | – | – | – | – | – | – | – | –
Nc1nc(-c2ccccc2)cc(-c2cc(Cl)ccc2O)n1 | > 100 µM | > 100 | > 100 | > 100 | > 100 µM | > 100 µM | > 100 | > 100 | > 100 | – | – | – | – | – | – | – | – | – | – | –
CCOC(=O)COc1cccc2occc(=O)c12 | > 100 µM | – | > 100 | > 100 | > 100 µM | > 100 µM | > 100 | > 100 | > 100 | – | – | – | – | – | – | – | – | – | – | –
Nc1c(-c2nc3ccccc3s2)[n+]([O-])c2ccccc2[n+]1[O-] | 82.2 µM | – | 72.5 | 61.5 | > 100 µM | > 100 µM | > 100 | 74.2 | – | – | – | – | – | – | – | – | – | – | – | –
Cc1ccc(O)cc1Nc1ccnc2cc(-c3ccccn3)ccc12 | 5.88 µM | – | 6.89 | 6.79 | 15 µM | 2.13 µM | 7.34 | 7.51 | 7.51 | 1.71 | 3.12 | 1.72 | 9.86 | 4.86 | 0.502 | 3.92 | 3.24 | 2.46 | 3.38 | –
CC1CCC2c3c([nH]c4ccccc34)C3C(=O)N(c4ccccc4)C(=O)C3C2C1 (stereo not given) | 97.9 µM and > 250 µM | > 250 | > 250 | > 250 | 42 µM and > 250 µM | 57 µM and 130 µM | – | > 250 | > 250 | 165 | 66.3 | – | – | 194 | 38.2 | – | 160 | – | – | > 250
C1CCN2CC3CONC3C2C1 (stereo not given) | > 100 µM | – | > 100 | > 100 | > 100 µM | > 100 µM | > 100 | > 100 | > 100 | – | – | – | – | – | – | – | – | – | – | –
NC(=O)C(=O)Cc1nc2ccccc2s1 | > 100 µM | – | > 100 | > 100 | > 100 µM | – | > 100 | > 100 | > 100 | – | – | – | – | – | – | – | – | – | – | –
CC(=O)c1sc2c(c1O)c(=O)n(-c1ccccc1)c(=S)n2-c1ccccc1 | > 100 µM | – | > 100 | > 100 | – | > 100 µM | > 100 | > 100 | > 100 | – | – | – | > 100 | – | – | – | – | – | – | –
Cc1cn2c(/C=C3/C(=O)Nc4ccc(C(=O)O)cc43)c(C)nc2s1 | > 100 µM | – | > 100 | > 100 | > 100 µM | > 100 µM | > 100 | > 100 | > 100 | > 100 | > 100 | > 100 | > 100 | > 100 | > 100 | > 100 | > 100 | > 100 | > 100 | –
